In the supplement of paper PMC10307832:

Columns and labels:
Assay in all cases: relative viability (nuclei count vs DMSO), 5 days (fraction); higher = more cells survive
[1] = compound: O[C@H]1CC[C@H](Nc2ncc3nc(Nc4c(F)cc(F)cc4F)n([C@H]4CCOC4)c3n2)CC1 [Tanzisertib] + CCNC(=O)c1noc(-c2cc(C(C)C)c(O)cc2O)c1-c1ccc(CN2CCOCC2)cc1 [Luminespib] (partner 0.01 µM)
Method in brief: (§1)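 Relative viability divides the nuclei count in treated wells by that in vehicle wells. Lung cancer cell lines were seeded in 1536-well plates, dosed by pin tool the next day, and fixed and stained after 5 days in one step with final 0.05% Triton X-100, 1% formaldehyde and 1 ug/ml Hoechst. Dosing was a single drug or a fixed anchor-drug dose plus five library-drug doses (not always all listed) in √10 steps, and values are medians of duplicate plates imaged at 4×.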

[2] = compound: C[C@@H](N)c1ccc(C(=O)Nc2ccnc3[nH]ccc23)cc1 + Nc1ncn([C@H]2C[C@H](O)[C@@H](CO)O2)c(=O)n1 [Decitabine] (partner 2 µM)
Method in brief: as §1

[3] = compound: C1CNCCC1C2=CC(=NN2)C3=CC=NC=C3 + CC(C)C[C@H](NC(=O)[C@H](Cc1ccccc1)NC(=O)c1cnccn1)B(O)O [Bortezomib] (partner 0.002 µM)
Method in brief: as §1

[4] = compound: C1CNCCC1C2=CC(=NN2)C3=CC=NC=C3 + C[C@@H](Oc1cc(-c2cnn(C3CCNCC3)c2)cnc1N)c1c(Cl)ccc(F)c1Cl [Crizotinib] (partner 1 µM)
Method in brief: as §1

| Cell Line | relative viability ([1]; first compound 0.08 µM) | relative viability ([1]; first compound 0.253 µM) | relative viability ([1]; first compound 0.8 µM) | relative viability ([1]; first compound 2.53 µM) | relative viability ([1]; first compound 8 µM) | relative viability ([2]; first compound 0.04 µM) | relative viability ([2]; first compound 0.1265 µM) | relative viability ([2]; first compound 0.4 µM) | relative viability ([2]; first compound 1.265 µM) | relative viability ([2]; first compound 4 µM) | relative viability ([3]; first compound 0.08 µM) | relative viability ([3]; first compound 0.8 µM) | relative viability ([3]; first compound 2.53 µM) | relative viability ([3]; first compound 8 µM) | relative viability ([4]; first compound 0.08 µM) | relative viability ([4]; first compound 0.8 µM) | relative viability ([4]; first compound 2.53 µM) | relative viability ([4]; first compound 8 µM) |
| --- | --- | --- | --- | --- | --- | --- | --- | --- | --- | --- | --- | --- | --- | --- | --- | --- | --- | --- |
| NCI-H1666 | 1.01 | 0.924 | 1.05 | 1.19 | 1.18 | 0.83 | 0.768 | 0.865 | 0.781 | 0.855 | 0.865 | 0.724 | 0.959 | 0.962 | 0.762 | 0.935 | 0.989 | 0.902 |
| EPLC-272H | 0.251 | 0.206 | 0.519 | 0.921 | 0.408 | 0.461 | 0.41 | 0.481 | – | 0.492 | 0.971 | 0.913 | 0.965 | 0.993 | 0.922 | 0.937 | 0.91 | 0.867 |
| ChaGo-K-1 | 0.573 | 0.406 | 0.552 | 0.589 | 0.648 | 0.569 | 0.526 | 0.548 | 0.529 | 0.456 | 0.991 | 1.31 | 1.02 | 0.984 | 0.926 | 1.15 | 1.08 | 1.09 |
| NCI-H1651 | 0.989 | 0.802 | 0.746 | 0.921 | 0.729 | 0.648 | 0.619 | 0.668 | 0.661 | 0.656 | 0.907 | 0.923 | 1.02 | 0.949 | 0.825 | 0.832 | 0.872 | 0.854 |
| HCC-44 | 1.14 | 1.12 | 1.09 | 1.07 | 1.13 | 0.862 | 0.981 | 0.971 | 0.893 | 0.92 | 0.911 | 0.93 | 1 | 0.886 | 0.889 | 0.908 | 0.842 | 0.839 |
| SW 1573 | 0.294 | 0.24 | 0.18 | 0.187 | 0.339 | 0.569 | 0.577 | 0.567 | 0.497 | 0.301 | 0.75 | 1.22 | 1.11 | 1.12 | 0.805 | 0.713 | 0.993 | 0.795 |
| PC-3 [JPC-3] | 0.621 | 0.758 | 0.693 | 0.662 | 0.6 | 0.776 | 0.807 | 0.857 | 0.824 | 0.625 | 0.845 | 0.814 | 0.811 | 0.793 | 0.941 | 1.07 | 0.971 | 0.953 |
| LOU-NH91 | 0.431 | 0.345 | 0.371 | 0.33 | 0.349 | 0.755 | 0.79 | 0.78 | 0.69 | 0.577 | 0.52 | 0.503 | 0.484 | 0.498 | 0.718 | 0.733 | 0.78 | 0.742 |
| PC-14 | 0.181 | 0.109 | 0.22 | 0.217 | 0.17 | 0.24 | 0.217 | 0.277 | 0.258 | 0.188 | 0.897 | 0.951 | 0.945 | 0.789 | 0.917 | 0.874 | 1.04 | 0.835 |
